Measured values taken from ChEMBL document CHEMBL3046588, “Design, synthesis, and in vitro evaluation of cytotoxic activity of new substituted 1,4-benzoquinones and hydroquinones” (2007).

How the values were obtained:
Assay type in all cases: functional
[1] = Cytotoxicity against Homo sapiens (human) breast cancer cells after 48 hr by SRB assay; conditions: Cancer cell lines; for LC50 (concentration giving 50% net cell kill): pooled result: one value given for 9 cell lines, strains, targets or settings
[2] = Cytotoxicity against Homo sapiens (human) prostate cancer cells after 48 hr by SRB assay; conditions: Cancer cell lines
[3] = Cytotoxicity against Homo sapiens (human) renal cancer cells after 48 hr by SRB assay; conditions: Cancer cell lines
[4] = Cytotoxicity against Homo sapiens (human) ovarian cancer cells after 48 hr by SRB assay; conditions: Cancer cell lines
[5] = Cytotoxicity against Homo sapiens (human) CNS cancer cells after 48 hr by SRB assay; conditions: Cancer cell lines
[6] = Cytotoxicity against Homo sapiens (human) melanoma cellsafter 48 hr by SRB assay; conditions: Melanoma cell
[7] = Cytotoxicity against Homo sapiens (human) colon cancer cells after 48 hr by SRB assay; conditions: Cancer cell lines
[8] = Cytotoxicity against Homo sapiens (human) leukemia cells after 48 hr by SRB assay; conditions: Leukemia cell
[9] = Cytotoxicity against Homo sapiens (human) non-small cell lung cancer cells after 48 hr by SRB assay; conditions: Cancer cell lines
SF-268 = experiment: Cytotoxicity against Homo sapiens (human) SF268 cells assessed as cellular growth after 48 hr by Alamar blue assay; design: concentration or dose not given beside the values
MCF7 = experiment: Cytotoxicity against Homo sapiens (human) MCF7 cells assessed as cellular growth after 48 hr by Alamar blue assay; design: concentration or dose not given beside the values
NCI-H460 = experiment: Cytotoxicity against Homo sapiens (human) NCI-H460 cells assessed as cellular growth after 48 hr by Alamar blue assay; design: concentration or dose not given beside the values

Structure (SMILES) | GI50 [1] | TGI [1] | LC50 (concentration giving 50% net cell kill) [1] | GI50 [2] | TGI [2] | GI50 [3] | TGI [3] | GI50 [4] | TGI [4] | GI50 [5] | TGI [5] | GI50 [6] | TGI [6] | GI50 [7] | TGI [7] | GI50 [8] | TGI [8] | GI50 [9] | TGI [9] | Activity (SF-268) | other results
NS(=O)(=O)c1ccc(-n2nc(-c3ccc(Cl)cc3)cc2C2=CC(=O)C=CC2=O)cc1 | 21.9 µM | 62.6 µM | 92.3 µM | 21.6 µM | 71.9 µM | 23.1 µM | 50.2 µM | 26.5 µM | 65.7 µM | 23.7 µM | 53 µM | 26.7 µM | 52.7 µM | 17.6 µM | 37.4 µM | 31.8 µM | 84.6 µM | 23.9 µM | 71.1 µM | <32% | Activity (MCF7): <32%; Activity (NCI-H460): <32%
O=C(CC1C(=O)NN(c2ccc(Br)cc2)C1=O)c1cc(O)ccc1O (configuration not stated) | 16.1 µM | 40.9 µM | 49.9 µM | 22.7 µM | 50 µM | 23.7 µM | 46.9 µM | 26.2 µM | 44.3 µM | 18.8 µM | 40.5 µM | 22 µM | 42.4 µM | 17.7 µM | 43.3 µM | 34.1 µM | 50 µM | 21.7 µM | 48.4 µM | <32% | Activity (MCF7): <32%; Activity (NCI-H460): <32%
CC(=O)NS(=O)(=O)c1ccc(-n2nc(-c3ccc(Cl)cc3)cc2-c2cc(O)ccc2O)cc1 | 55.3 µM | 82.1 µM | 91.2 µM | 17.7 µM | 38.8 µM | 23.5 µM | 59.8 µM | 44.6 µM | 81.2 µM | 38.5 µM | 93.9 µM | 36.2 µM | 60.1 µM | 37.6 µM | 66.5 µM | 37.4 µM | 92.6 µM | 36.2 µM | 73.7 µM | <32% | Activity (MCF7): <32%; Activity (NCI-H460): <32%
CC(=O)NS(=O)(=O)c1ccc(-n2nc(-c3ccccc3)cc2C2=CC(=O)C=CC2=O)cc1 | 78.5 µM | 100 µM | 100 µM | 100 µM | 100 µM | 90 µM | 100 µM | 100 µM | 100 µM | 100 µM | 100 µM | 92 µM | 100 µM | 78.4 µM | 100 µM | 57.8 µM | 91.2 µM | 100 µM | 100 µM | <32% | Activity (MCF7): <32%; Activity (NCI-H460): <32%
COc1ccc(OC)c(-c2cc(-c3ccccc3)nn2-c2ccc(S(N)(=O)=O)cc2)c1 | 12.3 µM | 32.9 µM | 73 µM | 13.9 µM | 28.8 µM | 13 µM | 29.8 µM | 13.6 µM | 43.7 µM | 15 µM | 31.1 µM | 15.3 µM | 40.8 µM | 11.9 µM | 27.5 µM | 6.94 µM | 68.5 µM | 31.4 µM | 40.7 µM | <32% | Activity (MCF7): <32%; Activity (NCI-H460): <32%
O=C1C=CC(=O)C(c2cc(-c3ccc(Cl)cc3)nn2-c2ccccc2)=C1 | 51.5 µM | 69.3 µM | 95.6 µM | 36.5 µM | 66.3 µM | 55.6 µM | 53.3 µM | 67.3 µM | 81.7 µM | 65.3 µM | 55.8 µM | 69.4 µM | 55.4 µM | 42.4 µM | 69.7 µM | 27.8 µM | 87.1 µM | 53.5 µM | 70.1 µM | <32% | Activity (MCF7): <32%; Activity (NCI-H460): <32%
COc1ccc(OC)c(-c2cc(-c3ccccc3)nn2-c2ccc(S(=O)(=O)NC(C)=O)cc2)c1 | 9.7 µM | 44.5 µM | 77.1 µM | 12 µM | 28.8 µM | 13.3 µM | 37.6 µM | 13.3 µM | 50.7 µM | 18.1 µM | 42.6 µM | 15.4 µM | 36.2 µM | 3.74 µM | 18.2 µM | 7.4 µM | 53.4 µM | 15.3 µM | 49.8 µM | <32% | Activity (MCF7): <32%; Activity (NCI-H460): <32%
CC(=O)NS(=O)(=O)c1ccc(-n2nc(-c3ccccc3)cc2-c2cc(O)ccc2O)cc1 | 91.3 µM | 100 µM | 100 µM | 100 µM | 100 µM | 78.1 µM | 100 µM | 100 µM | 100 µM | 90.4 µM | 100 µM | 84.8 µM | 100 µM | 78.6 µM | 100 µM | 93.6 µM | 100 µM | 93.9 µM | 100 µM | <32% | Activity (MCF7): <32%; Activity (NCI-H460): <32%
Cc1ccc(-c2cc(C3=CC(=O)C=CC3=O)n(-c3ccc(S(N)(=O)=O)cc3)n2)cc1 | 51.5 µM | 95.5 µM | 99.2 µM | 36.5 µM | 100 µM | 55.6 µM | 86.8 µM | 67.4 µM | 100 µM | 65.3 µM | 100 µM | 69.4 µM | 97.3 µM | 42.4 µM | 88.8 µM | 37.4 µM | 94 µM | 53.5 µM | 100 µM | <32% | Activity (MCF7): <32%; Activity (NCI-H460): <32%
Oc1ccc(O)c(-c2cc(-c3ccc(Cl)cc3)nn2-c2ccccc2)c1 | 9.25 µM | 41.1 µM | 76.1 µM | 14.6 µM | 30.7 µM | 8.86 µM | 32 µM | 8.01 µM | 60.4 µM | 17.9 µM | 34.6 µM | 8.79 µM | 32.5 µM | 5.75 µM | 16.8 µM | 3.43 µM | 49.7 µM | 6.85 µM | 33.2 µM | <32% | Activity (MCF7): <32%; Activity (NCI-H460): <32%
NS(=O)(=O)c1ccc(-n2nc(-c3ccccc3)cc2-c2cc(O)ccc2O)cc1 | 83.9 µM | 96 µM | 100 µM | 77.6 µM | 100 µM | 88.1 µM | 99.3 µM | 81.3 µM | 98.2 µM | 86.6 µM | 100 µM | 61.9 µM | 92 µM | 75.7 µM | 100 µM | 49.6 µM | 100 µM | 88.9 µM | 100 µM | <32% | Activity (MCF7): <32%; Activity (NCI-H460): <32%
